Data set [1] is described as follows: In vitro human hepatocytes clearance assay. It is filed as in vitro ADME. On the procedure:
(§1) In Vitro Rat/Human Hepatocytes Clearance Assay
(§2) Rat hepatocytes in male gender and human hepatocytes in mixed gender were obtained from commercial vendors (e.g., BioreclamationIVT) and stored at −150° C. prior to use. 10 mM stock solutions of tested compounds were prepared in DMSO. Thawing medium and supplement incubation medium (serum-free) were placed in a 37° C. water bath for at least 15 minutes prior to use. Stock solutions were diluted to 100 μM by combining 198 μL acetonitrile and 2 μL of 10 mM stock solution.
(§3) Vials of cryopreserved hepatocytes were removed from storage, ensured that vials remain at cryogenic temperatures. The vials were thawed in a 37° C. water bath with gently shaking. Vials were kept in a water bath until all ice crystals had dissolved and were no longer visible. Vials were sprayed with 70% ethanol before being transferred to a biosafety cabinet. And then the contents were poured into the 50 mL thawing medium conical tube. Vials were centrifuged at 100 g for 10 minutes at room temperature. Thawing medium was aspirated and hepatocytes were resuspended with serum-free incubation medium to yield ^˜1.5×10^6 cells/mL.
(§4) Cell viability and density were counted using a Trypan Blue exclusion, and then cells were diluted with serum-free incubation medium to a working cell density of 1×10^6 viable cells/ml. A portion of the hepatocytes at 1×10^6 viable cells/mL was boiled for 10 min prior to adding to the plate as negative control to eliminate the enzymatic activity so that little or no substrate turnover should be observed. The inactivated hepatocytes were used to prepare negative samples, which were used to exclude the misleading factor that resulted from instability of chemical itself.
(§5) Aliquots of 247.5 μL hepatocytes were dispensed into each well of a 96-well non-coated plate. The plate was placed in the incubator on an orbital shaker for approximately 10 minutes. Aliquots of 2.5 μL of the 100 μM test compounds were added into respective wells of the non-coated 96-well plate to start the reaction. This assay was performed in duplicate. The plate was incubated in the incubator on an orbital shaker for the designed time points. 20 μL of contents were transferred and mixed with 6 volumes (120 μL) of cold acetonitrile with internal standard to terminate the reaction at time points of 5, 15, 30, 45, 60, 80 and 100 minutes. Samples were centrifuges for 20 minutes at 4000 g and aliquots of 100 μl of the supernatants were used for LC-MS/MS analysis for measurement of test compounds.
(§6) In vitro hepatocyte clearance was estimated based on determination of elimination half-life (T1/2) of compounds disappearance from their initial concentrations. Peak area ratios of each compound (test or control) to IS was calculated. Ln (% Control) versus Incubation Time (min) curve was plotted, and the slope of a linear fitting line was calculated. Drug elimination rate constant k (min-1), T1/2 (min), and in vitro intrinsic clearance CLint (μL/min/E6) was calculated according to the following equations: k=−slope T1/2=0.693/k CLint=k/Chep • Where Chep (cells×μL-1) is the cell concentration in the incubation system. Procedure for Log D Determination

A short description of the next data set: Hu Mic Clint. It counts as in vitro ADME, human. The note with it: for microsomal CLint: human, microsomes.
Data set [2] is described as follows: Protein binding in human plasma by equilibrium dialysis. It is filed as in vitro ADME. The note with it: 18 hours at 37° C.; for hPPB (fu %): human plasma, 5 μM, fraction unbound; for fraction unbound at 18 h, 5 μM: human, plasma, pH 7.4, human plasma, read-out: hPPB (fu %). How it is done: (§7) [formula] DF means the dilution factor. Procedure for Protein Binding Measurements in Human Plasma by Using Equilibrium Dialysis
Add 597 μL of blank plasma into each vial of a new plastic plate or separate plastic tube by addition of 3 μL of the working solution of each cassette, vortex at 1,000 rpm for 5 minutes. The final percent volume of organic solvent is 0.5% and the final concentration for test compound is 5 μM. Immediately transfer 50 μL of the spiked plasma suspension to a 96-well plate to act as T=0 control sample. The samples are treated the same as the samples after incubation. Place all remaining spiked plasma in the incubator for the duration of the study.
Place inserts open end up into the wells of the base plate. Add 500 μL of phosphate buffer (pH 7.4) to the buffer chamber, which is indicated by the white ring. Add 300 μL of spiked plasma sample into the sample chamber, which is indicated by the red ring. Cover the unit with gas permeable lid and incubate for 18 hours at 37° C. at 300 rpm with 5% CO2 on an orbital shaker in the CO2 incubator. At the end of incubation, remove lid and pipette 50 μL of post-dialysis samples from both buffer and plasma chambers into separated 96-well plate for analysis, respectively.
At the same time, the remaining spiked plasma sample in the plastic plate or separate plastic tube is incubated for 18 hours at 37° C. with 5% CO2 in the CO2 incubator. At T=18 hours, transfer 50 μL of the original spiked plasma suspension to the 96-well plate for analysis.
Add 50 μL of Human plasma to the buffer samples, and an equal volume of PBS to the collected plasma samples. Vortex the plate at 1,000 rpm for 2 minutes and add 400 μL of acetonitrile containing an appropriate internal standard (IS) to precipitate protein and release compound. Vortex at 1,000 rpm for 10 minutes. Centrifuge for 30 minutes at 4,000 rpm. Transfer 250 μl of the supernatant to new 96-well plates and centrifuge again (4,000 rpm, 30 minutes). Then transfer 100 μL of the supernatant to new 96-well plates for analysis. Add 100 μL of distilled water to each sample and vortex for 5 minutes at 1,000 rpm for analysis by LC-MS/MS. All compounds are tested in singlicate at 5 μM in human plasma.
All calculations are carried out using Microsoft Excel.
Calculate the percentage of unbound, percentage of bound and recovery of test compound as follows: […]

Another data set in a line: DMSO solubility. It is filed as physicochemical.
For a further data set, the target named is T1, Recombinant BTK(C481S) (Homo sapiens, UniProt Q06187, C481S).
T1 construct: purchased SignalChem
T1 sequence (Q06187 whole entry C481S): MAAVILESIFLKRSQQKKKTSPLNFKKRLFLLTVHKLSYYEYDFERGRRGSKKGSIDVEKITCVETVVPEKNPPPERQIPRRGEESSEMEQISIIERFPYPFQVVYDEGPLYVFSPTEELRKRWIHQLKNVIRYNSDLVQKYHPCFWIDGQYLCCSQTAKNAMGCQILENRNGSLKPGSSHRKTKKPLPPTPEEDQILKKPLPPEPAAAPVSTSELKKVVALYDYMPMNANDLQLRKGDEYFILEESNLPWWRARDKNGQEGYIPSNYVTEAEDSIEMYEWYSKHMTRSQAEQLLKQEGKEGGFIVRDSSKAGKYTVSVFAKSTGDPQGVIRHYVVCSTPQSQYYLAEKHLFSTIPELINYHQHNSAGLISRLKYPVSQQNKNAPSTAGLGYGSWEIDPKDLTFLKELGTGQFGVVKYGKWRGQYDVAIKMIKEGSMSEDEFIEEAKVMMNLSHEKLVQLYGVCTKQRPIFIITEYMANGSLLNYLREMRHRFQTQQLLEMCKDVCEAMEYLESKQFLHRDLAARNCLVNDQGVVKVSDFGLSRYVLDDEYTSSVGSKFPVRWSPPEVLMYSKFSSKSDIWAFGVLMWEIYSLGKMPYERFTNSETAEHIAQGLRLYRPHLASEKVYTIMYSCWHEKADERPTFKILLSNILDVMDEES
The experiment in a line: BTK C481S HTRF kinase assay. The settings on record: 30 min pre-incubation, 120 min reaction. It is filed as biochemical. On the procedure:
[The procedure below names another variant; the source lists this variant under the same test.] (§8) Recombinant BTK wild type (BTK WT) was purchased from Thermo fisher.
(§9) In brief, recombinant kinases were pre-incubated in the presence or absence of compound at room temperature for 30 minutes. The reaction was initiated by the addition of the ATP and substrate peptide which could be phosphorylated by kinases in the reaction. After 120 minutes incubation, the reaction was stopped by the addition of the detection reagent mix containing EDTA.

Data set [3] can be described thus: Log D determination (octanol/phosphate buffer). It counts as physicochemical. The note with it: 25° C. How it is done: 10 μL of working solution of each cassette is placed in order into respective 96-well rack position (Log D plate). Add 500 μL of saturated octanol into each vial of the above cap-less Log D plate followed by the addition of 500 μL of saturated phosphate buffer. Seal with a moulded PTFE/SIL 96-Well Plate Cover.
The samples are centrifuged at 4,000 rpm at 25° C. for 30 minutes to separate the phases. Pipette and syringe are used to pipette about 100 μL from the octanol and buffer phases to a new 96-well plate, respectively.
5 μL of octanol sample is transferred to a new 96-well plate, followed by addition of 495 μL of a mixture of H2O and acetonitrile containing internal standard (1:1) as 100 fold octanol samples. Vortex for 5 minutes at 1,000 rpm.
50 μL of 100 fold samples are transferred to new 96-well plate, followed by addition of 450 μL of a mixture of H2O and acetonitrile containing internal standard (1:1) as 1,000 fold octanol samples. Vortex for 5 minutes at 1,000 rpm.
The 1,000 folds octanol samples are serially diluted into 10,000, 100,000 and 1,000,000 folds with a mixture of H2O and acetonitrile containing internal standard (1:1).
50 μL of buffer samples are transferred to new 96-well plate, followed by addition of 450 μL of a mixture of H2O and acetonitrile containing internal standard (1:1) as 10 folds buffer samples. Vortex for 5 minutes at 1,000 rpm.
The 10 folds buffer samples are serially diluted into 100, 1,000 and 10,000 folds with a mixture of H2O and acetonitrile containing internal standard (1:1). The samples are evaluated by LC/MS/MS analysis. All compounds are tested in singlicate.
All calculations are carried out using Microsoft Excel. The concentrations of test compound in octanol/buffer solution are evaluated by LC/MS/MS. Calculate the Log D value of the test compound as follows:
as §7

Data set [4] deals with T2, Recombinant BTK wild type (BTK WT) (Homo sapiens, UniProt Q06187).
T2 construct: purchased Thermo fisher
T2 sequence (Q06187 whole entry): as the sequence (Q06187 whole entry C481S) above, with S481C counted along it
The experiment in a line: BTK WT HTRF kinase assay. It is filed as biochemical. The settings on record: 30 min pre-incubation, 120 min reaction. How it is done:
as §8, §9

Data set [5] in a line: In vitro rat hepatocytes clearance assay. It is filed as in vitro ADME. How it is done: as §1, §2, §3, §4, §5, §6
For data set [6] the following is noted: phase I trial for multiple sclerosis (MS); cited from earlier work.

The structures appear in SMILES notation. In brackets after ≈: the same amount, converted by molar mass. Like-named read-outs stand apart in the source and are kept apart here.

The source of these data is patent US12624039B2, “BTK inhibitors” (DIZAL (JIANGSU) PHARMACEUTICAL CO., LTD., priority 2020, dated 2026).

Consider `Nc1ncnn2c(C3CCC(CO)OC3)nc(-c3ccc(Oc4ccccc4)c(F)c3F)c12` (centres unmarked) [Compound 13, (5-(4-amino-5-(2,3-difluoro-4-phenoxyphenyl)imidazo[5,1-f][1,2,4]triazin-7-yl)tetrahydro-2H-pyran-2-yl)methanol], for which the “Human Hep Clint” value in [1] is 5.9 μL/min/10∧6 cells. Also, the “Hu Mic Clint” value in “Hu Mic Clint” was less than 3 µL/min/mg. For the same compound, the “hPPB (fu %)” value in data set [2] stood at 8.4%. Moreover, the solubility in “DMSO solubility” is listed as 113 µM (≈ 51.2 µg/mL). Also, the IC50 turned out to be 3.81 nM on Recombinant BTK(C481S) and 3.29 nM in [4]. In data set [3], this compound came in with a logD of 3.21. For the same compound, in [5], the “Rat Hep Clint” value is given as 21.4 μL/min/10∧6 cells.

`Nc1ncnn2c(C3CCC(CO)OC3)nc(-c3ccc(Oc4cccc(F)c4F)cc3)c12` (centres unmarked) [Compound 15, (5-(4-amino-5-(4-(2,3-difluorophenoxy)phenyl)imidazo[5,1-f][1,2,4]triazin-7-yl)tetrahydro-2H-pyran-2-yl)methanol]: in [1], the “Human Hep Clint” value amounted to 2.1 μL/min/10∧6 cells. Also, the “Hu Mic Clint” value in the data set “Hu Mic Clint” is less than 3 µL/min/mg. In data set [2], the “hPPB (fu %)” value came to 6.4%. The compound also returned a solubility in the data set “DMSO solubility” of 84.0 µM (≈ 38.1 µg/mL). Besides, the results for the IC50 (at Recombinant BTK(C481S); in [4]) were 6.11 nM and 6.72 nM, respectively. The same compound yielded a logD in data set [3] of 2.98. The “Rat Hep Clint” value in data set [5] was 7.9 μL/min/10∧6 cells.

For `C=CC(=O)N1CCC[C@@H](n2c(=O)n(-c3ccc(Oc4ccccc4)cc3)c3c(N)nccc32)C1` [PRN2246], the tolerability result in data set [6] is “well tolerated”.

Turning to `Nc1ncnn2c1c(-c1ccc(Oc3ccccc3)cc1F)nc2[C@H]1CC[C@H](CO)CC1` [reference compound], the “Human Hep Clint” value in data set [1] amounted to 123.6 μL/min/10∧6 cells. In “Hu Mic Clint”, this compound returned a microsomal CLint of 19.3 µL/min/mg. Moreover, the fraction unbound at 18 h, 5 μM in data set [2] is 0.0257. The solubility in the data set “DMSO solubility” (kinetic from dmso stock) was less than 1.6 µM. Also, in data set [3], the logD at 2 h was 3.98. In addition, the “Rat Hep Clint” value in data set [5] came to 254.9 μL/min/10∧6 cells.

In the case of `Nc1nccn2c1c(-c1ccc(Oc3ccccc3)cc1)nc2[C@H]1CC[C@H](CO)CC1` [reference compound], the “Human Hep Clint” value in data set [1] is 92.9 μL/min/10∧6 cells. For the same compound, the intrinsic metabolic clearance (microsomal CLint) in the data set “Hu Mic Clint” was 141 µL/min/mg. In data set [2], the fraction unbound at 18 h, 5 μM is 0.0289. The compound also returned a solubility in “DMSO solubility” (kinetic from dmso stock) of less than 1.6 µM. In [3], this compound yielded a logD at 2 h of 4.16. In data set [5], the “Rat Hep Clint” value is given as 119.3 μL/min/10∧6 cells.
